Here are results for 1 compound from patent US12516016B2, “GPX4 inhibitors, pharmaceutical compositions thereof, and their use for treating GPX4-mediated diseases” (EUBULUS BIOTHERAPEUTICS (HONG KONG) LIMITED, priority 2020, dated 2026).

Some results are limits rather than exact numbers.

Common to all, as to type: cell-based
In assay [1] the test system is hepatocellular carcinoma cell line Hub-7. The assay can be described thus: Cell proliferation assay (CELL-TITER GLO cell viability). The note with it: 24 h, Hub-7 cells, 24 h incubation, read-out: Inhibition of Cell Proliferation EC50. The procedure, abridged: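 […] cells (4,000/well) seeded overnight, then exposed 24 h to compound from 10 μM in 3-fold serial dilutions. Viability read by CELL-TITER GLO luminescence; EC50 values derived.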

Assay [2] shares this test system. The assay is described as follows: Anti-proliferation activity in the presence of a ferroptosis inhibitor. The procedure:
(§1) The activity of a test compound was determined in a cell proliferation assay using the hepatocellular carcinoma cell line […]. Cells (4,000 cells per well) were seeded in a 96-well tissue culture plate. After incubated overnight, a test compound was added at predetermined concentrations, starting with 10 μM and followed by 3-fold serial dilution. After the cells were incubated for 24 h, cell viability was determined using a CELL-TITER GLO® assay. The CELL-TITER GLO® reagent (50 μL) was added to each well and the luminescence was measured by a multimode microplate reader after a brief period of shaking. EC50 values were determined for the test compound. The results are summarized in Table 1, wherein A represents a value no greater than 100 nM, B represents a value greater than 100 nM but no greater than 500 nM, C represents a value greater than 500 nM but no greater than 2 μM, D represents a value greater than 2 μM but no greater than 10 μM; and E represents a value greater than 10 μM.
(§2) The anti-proliferation activity of compound 80 was tested in the presence of an ferroptosis inhibitor, ferrostatin-1 (1 μM) or liproxstatin-1 (1 μM).

For assay [3], the system named is hepatocellular carcinoma cell line. The description is as above. As to conditions: in the presence of ferrostatin-1 (1 μM); read-out: Inhibition of Cell Proliferation EC50, Ferrostatin-1. How it is done:
as §1, §2

As for `C#CC(=O)N(c1cccc(Cl)c1)C1(C(=O)NCc2ccccc2)CCOCC1` [A80, N-Benzyl-4-(N-(3-chlorophenyl)propiolamido)tetrahydro-2H-pyran-4-carboxamide], the EC50 in assay [1] is at most 0.1 µM; in assay [2] (in the presence of liproxstatin-1 (1 μM), read-out: Inhibition of Cell Proliferation EC50, Liproxstatin-1), over 10 µM; in assay [2] (read-out: Inhibition of Cell Proliferation EC50, No Ferroptosis inhibitor) it was at most 0.1 µM; in assay [3] it was over 10 µM.
